Experimental data reported in article PMC7035640 (Parasites & Vectors, 2020).
Like-named read-outs stand apart in the source and are kept apart here.

Tests used:
[1] = test system: L. donovani promastigotes; experiment: Promastigote inhibition, flow cytometry (annexin V-FITC/PI); type: cell-based, Leishmania donovani; details: mean ± SD of three independent experiments
Experimental: (§1) Leishmania donovani strain MHOM/CN/IN/80/DD8 was used in this study. Leishmania promastigotes in the logarithmic phase were cultured at 28 °C in M199 medium at pH 7.4 (Sigma-Aldrich, Saint Louis, MO, USA), supplemented with 10% fetal bovine serum (Hyclone, Logan, UT, USA) and antibiotics (Pen-Strep, 100 U/ml penicillin-100 […] streptomycin sulphate).
Inhibition rate (%) was calculated as follows: Inhibition rate (%) = 100% − [(No. of live parasites in treated sample/No. of live parasites in untreated control) × 100%].
(§2) RAW 264.7 cells (5.0 × 10^5 cells/per well) were plated on round glass coverslips in 24-well plates and allowed to adhere to the slides for 24 h at 37 °C, 5% CO2, in PRMI 1640 medium (Gibco, Franklin, TN, USA) supplemented with 10% FBS (Gibco). Adherent macrophages were infected with L. donovani promastigotes, at a macrophages-to-parasite ratio of 1:20 for 6 h at 37 °C, 5% CO2. Next, the non-infected parasites were removed by washing three times with PBS, and the infected macrophages were incubated in 37 °C in 5% CO2 with PRMI 1640 medium and 10% FBS without drugs for 24 h. […] At 24 and 48 h, the glass coverslips were fixed in methanol (Solarbio, Beijing, China) and stained with Wright’s stain (Solarbio). The numbers of parasites were determined using light microscopy by counting at least 200 cells per slide. The results are expressed as means of three independent experiments.
(§3) All experiments were carried out in triplicates and repeated at least three times and the figures shown are representative of these experiments. IC50 were calculated according to a nonlinear regression using a log inhibitor-versus response equation with 95% confidence intervals in the GraphPad Prism 6.0 software. The data were analyzed using Student’s t-test for comparison of two groups and data values were expressed as the mean ± standard deviation (SD). Significant differences were determined and designated with asterisks as follows: *P < 0.05; **P < 0.01; ***P < 0.001 and ****P < 0.0001.

[2] = test system: intracellular amastigotes of Leishmania donovani; experiment: Intracellular amastigote inhibition in infected RAW 264.7 macrophages, Wright's stain and microscopy; type: cell-based; details: for Number of intracellular amastigotes compared to untreated (Wright's staining): CsA 10 μM, DHCsA-d 5 μM, SSG 9 μM; for IC50: intracellular amastigotes in RAW 264.7, mean ± SD
Experimental: as §1
as §2, with “experiments. The 50% inhibitory concentration (IC50) was calculated for promastigotes and intracellular amastigotes by fitting the values to a non-linear curve analysis.” for “experiments.”
as §3

[3] = test system: murine macrophages (RAW 264.7); experiment: Cytotoxicity assessment, Cell Counting Kit-8; type: cell-based, mouse
Experimental: Murine macrophages were cultivated in a 96-well plate using PRIM 1640 medium containing 10% FBS and maintained at 37 °C, 5% CO2, for 24 h. […] The cytotoxicity was measured at 24 and 48 h following a standard protocol.

[4] = test system: L. donovani infected macrophages (RAW 264.7); experiment: Cytokine quantification by ELISA in supernatants of L. donovani-infected RAW 264.7 macrophages; type: cell-based, mouse; details: 24 h, 48 h and 72 h; CsA 10 μM, DHCsA-d 5 μM, SSG 9 μM
Experimental: (§4) Mouse RAW 264.7 macrophages (5.0 × 10^5 cells/per well), adhered for 24 h at 37 °C, 5% CO2, in PRMI 1640 medium supplemented with 10% FBS were infected with promastigotes at a macrophages-to-parasite ratio of 1:20 for 6 h at 37 °C, 5% CO2, and subsequently the non-infected parasites were removed by washing three times with PBS. Infected macrophages were incubated in PRMI 1640 medium and 10% FBS at 37 °C, 5% CO2, without drugs for 24 h. […] The cells were further incubated for 3 days, and the medium supernatants were retrieved at 24, 48 and 72 h. Subsequently, the cytokines IL-12, IL-10, IL-4, IFN-γ and TNF-α were measured utilizing the BD OpitELA ELISA Kit (BD). NO and H2O2 concentrations in the supernatants were detected by nitric oxide and hydrogen peroxide assay kits (Beyotime), respectively.

[5] = test system: L. donovani infected macrophages (RAW 264.7); experiment: NO and H2O2 quantification in supernatants of L. donovani-infected RAW 264.7 macrophages; type: cell-based, mouse; details: 24 h, 48 h and 72 h; CsA 10 μM, DHCsA-d 5 μM, SSG 9 μM
Experimental: as §4

[6] = test system: L. donovani cyclophilin A (LdCyPA); experiment: Western blotting of LdCyPA expression in promastigotes; type: cell-based, Leishmania donovani; details: 48 h; CsA 16 μM, DHCsA-d 12 μM, SSG 20 μM; normalized to α-tubulin
Experimental: (§5) Polyclonal antibodies against LdCyPA were obtained to monitor protein expression. Representative peptides of LdCyPA were analyzed through two predictors for B cells, BEPIPRED and BCPRED12. […] Polyclonal antiserum was produced in New Zealand white rabbits. The rabbits were immunized with Freund’s adjuvant (Sigma-Aldrich), containing 1500 μg of LdCyPA peptide, on days 0, 15 and 30. The rabbits received three subcutaneous injections, the first in complete Freund’s adjuvant and later two in incomplete Freund’s adjuvant. Serum was obtained and antibody titers were estimated by ELISA on 25 and 42 days after the last injection.
(§6) These cells were then lysed with a protein lysis buffer supplemented with protease and phosphatase inhibitors and the protein concentration was determined by the BCA Kit (Beyotime). The extracted proteins were denatured for 5 min at 100 °C after adding appropriate amounts of loading buffer. Approximately 40 to 50 μg of proteins was loaded in each lane of a 12% polyacrylamide gel (Beyotime). […] The PVDF membranes were visualized with an enhanced chemiluminescence western blotting detection kit (Beyotime) and the protein bands were analyzed by densitometric studies using ImageJ software.

[7] = test system: L. donovani cyclophilin A (LdCyPA); experiment: Western blotting of LdCyPA expression in intracellular amastigotes; type: cell-based, Leishmania donovani; details: 48 h; CsA 10 μM, DHCsA-d 5 μM, SSG 9 μM; normalized to α-tubulin
Experimental: as §5, §6

[8] = test system: cyclophilin A (CyPA); experiment: Western blotting of CyPA expression in RAW 264.7 cells; type: cell-based, mouse; details: 48 h; CsA 10 μM, DHCsA-d 5 μM, SSG 9 μM; normalized to α-tubulin
Experimental: These cells were then lysed with a protein lysis buffer supplemented with protease and phosphatase inhibitors and the protein concentration was determined by the BCA Kit (Beyotime). The extracted proteins were denatured for 5 min at 100 °C after adding appropriate amounts of loading buffer. Approximately 40 to 50 μg of proteins was loaded in each lane of a 12% polyacrylamide gel (Beyotime). Proteins were separated at 120 V until the dye front reached the bottom of the gel, followed by transfer of the gels to polyvinylidene fluoride (PVDF) membranes (EMD, MA, USA) in transfer buffer (25 mM Tris-HCl, 192 mM glycine, 20% methanol, 0.02% SDS, pH 8.3) and run at 200 mA for 60 min. The membranes were then soaked in a blocking buffer (1 × PBS, 0.1% Tween 20) and supplemented with 1% bovine serum albumin (Sigma-Aldrich) for 2 h, before incubating overnight at 4 °C individually with LdCyPA polyclonal antibody, CyPA antibody (Affinity, Dublin, OH, USA) and α-tubulin antibody (Affinity) at appropriate dilutions. All the primary antibodies were used at a 1:4000 dilution and horseradish peroxidase-conjugated anti-rabbit immunoglobulin secondary antibodies (Affinity) were used at a 1:5000 dilution. The PVDF membranes were visualized with an enhanced chemiluminescence western blotting detection kit (Beyotime) and the protein bands were analyzed by densitometric studies using ImageJ software.

[9] = test system: L. donovani promastigotes; experiment: Transmission electron microscopy of promastigotes; type: cell-based, Leishmania donovani; details: 48 h; CsA 16 μM, DHCsA-d 12 μM, SSG 20 μM
Source text: (§7) Next, the cells were dehydrated in acetone and embedded in epoxy resin. Stained with lead citrate and observed under a Hitachi HT7700 transmission electron microscope.

[10] = test system: intracellular amastigotes of L. donovani; experiment: Transmission electron microscopy of intracellular amastigotes in RAW 264.7 macrophages; type: cell-based, Leishmania donovani; details: 48 h, DHCsA-d 5 μM; for Ultrastructure of intracellular amastigotes (mitochondria): CsA 10 μM, SSG 9 μM
Source text: as §7

[11] = 24 h, mean ± SD, read-out: Cytotoxicity (RAW 264.7) CC50
[12] = 48 h, mean ± SD, read-out: Cytotoxicity (RAW 264.7) CC50

| SMILES | IC50 ([1]; 24 h) | IC50 ([1]; 48 h) | Number of intracellular amastigotes compared to untreated (Wright's staining) ([2]; 24 h) | IC50 ([2]; 24 h) | Number of intracellular amastigotes compared to untreated (Wright's staining) ([2]; 48 h) | IC50 ([2]; 48 h) | CC50 [3, 11] | CC50 [3, 12] | IFN-γ level vs untreated infected cells [4] | IL-4 level vs untreated infected cells [4] | IL-10 level vs untreated infected cells [4] | IL-12 level vs untreated infected cells [4] | TNF-α level vs untreated infected cells [4] | H2O2 production vs untreated infected cells [5] | NO production vs untreated infected cells [5] | Expression of LdCyPA in promastigotes vs untreated [6] | Expression of LdCyPA in intracellular amastigotes vs untreated [7] | Expression of CyPA in RAW 264.7 cells vs untreated [8] | Ultrastructure of promastigote mitochondria [9] | Ultrastructure of intracellular amastigotes (mitochondria) [10] | further results |
| --- | --- | --- | --- | --- | --- | --- | --- | --- | --- | --- | --- | --- | --- | --- | --- | --- | --- | --- | --- | --- | --- |
| CCCC[C@@H](C)[C@@H](O)[C@H]1C(=O)N[C@@H](CC)C(=O)N(C)CC(=O)N(C)[C@@H](CC(C)C)C(=O)N[C@@H](C(C)C)C(=O)N(C)[C@@H](CC(C)C)C(=O)N[C@@H](C)C(=O)N[C@H](C)C(=O)N(C)[C@@H](CC(C)C)C(=O)N(C)[C@@H](CC(C)C)C(=O)N(C)[C@@H](C(C)C)C(=O)N1C [DHCsA-d, dihydrocyclosporin A] | 21.2 ± 1.2 µM | 12.1 ± 1.1 µM | reduced | 5.23 ± 2.1 µM | basically absent | 4.84 ± 0.4 µM | 7.98 ± 0.4 µM | 6.65 ± 0.7 µM | significant increases | significantly decreased | significantly decreased | significant increases | significant increases | significantly decreased | significantly decreased | no significant changes | no significant changes | no significant changes | completely disorganized | disintegrated | Share of intracellular amastigotes degraded in parasitophorous vacuoles [10]: Almost half |
| O.O.O.O.O.O.O.O.O.O=C([O-])[C@@H]1[O][Sb](=[O])([O][Sb]2(=[O])[O][C@H]([C@H](O)CO)[C@H](O)[C@H](C(=O)[O-])[O]2)[O][C@H]([C@H](O)CO)[C@@H]1O.[Na+].[Na+].[Na+] (stereo partly drawn) [SSG, Sodium stibogluconate] | 32.3 ± 1.6 µM | 20.2 ± 1.4 µM | reduced | 9.51 ± 0.5 µM | basically absent | 8.27 ± 0.1 µM | > 120 µM | > 120 µM | significant increases | significantly decreased | significantly decreased | significant increases | significant increases | significantly decreased | significantly decreased | no significant changes | no significant changes | no significant changes | completely disorganized | disintegrated | CC50 ([3]; RAW 264.7, time not given in the sentence, read-out: CC50): > 120 µM |
